Where two headings read alike, the source gives them in different places.
Legend:
[1] = approximate values given by way of illustration; cited from earlier work
TOMATO = details: for % INJURY 7 DAT: rated 7 DAT; for % INJURY 10 DAT: rated 10 DAT; for % INJURY 14 DAT: rated 14 DAT; for % INJURY 21 DAT: rated 21 DAT; for % INJURY 28 DAT: rated 28 DAT
Text: Reduction in herbicide volatility can be characterized using the procedure generally set forth in Penner U.S. Publication No. 2016/0255832, which includes a bioassay system for evaluating herbicide volatilization from plant substrates (e.g., using wheat and soybean plants or equivalent in a plant growth chamber with a selected adjuvant/herbicide composition including a volatile growth regulator herbicide and an aminopolycarboxylate salt). A wide range of soil, plant, environmental, and herbicide factors (e.g., vapor pressure and water solubility of herbicide, surface characteristics) can affect herbicide volatility from soils and plants. Comparison of the volatilization would be most readily visualized by appropriate bioassay systems. In the bioassay system, a herbicide composition including a volatile growth regulator herbicide (e.g., 2,4-D, dicamba, or otherwise) and optionally one or more adjuvants (e.g., including an aminopolycarboxylate salt or not) is applied foliarly to a target plant generally resistant to the herbicide (e.g., wheat plants, such as amber red wheat) or is applied to a target soil area without a target plant. Twenty minutes later, soybean plants (e.g., PIONEER 92M92 soybean plants) or other plants sensitive to the volatile growth regulator herbicide are placed in the middle of the sprayed target plants and/or soil.
The following examples illustrate the disclosed compositions and methods, but are not intended to limit the scope of any claims thereto. […] In the examples of Tables 1-3, target weeds were initially treated with glyphosate and any additional adjuvants as indicated in the tables. […] In the examples of Table 4, target soil was initially treated with dicamba and any additional adjuvants as indicated in the table, and then tomato plants were inserted into a ring of the treated soil for 24 hours. After 24 hours of sitting in the treated soil (i.e., during which time any volatilized herbicide from the soil could contact the tomato plants), the tomato plants were removed from the treated soil and grown on a laboratory bench.

VELVETLEAF = experiment: Effect of DTPA on glyphosate efficacy on velvetleaf (% control); type: in vivo; details: Table 3, combined experiments 1, 2 and 3, 10 gpa, 25 psi, glyphosate 0.25 lb a.e./A
GIANT FOXTAIL = experiment: Effect of DTPA, EDTA and other adjuvants on glyphosate efficacy on giant foxtail (% control); type: in vivo; details: combined experiments 1 and 2, 10 gpa, 25 psi
[2] = pH of the treatment solutions (Table 3); type: physicochemical; details: pH of treatment solution, DTPA treatments adjusted with KOH (5N)
[3] = tomato in treated soil ring: duration, dicamba 0.50 lb a.e./A
[4] = tomato inserted 1 DAT (in 1st DAT out 2nd DAT), 24 hours
[5] = tomato inserted 2 DAT (in 2nd DAT out 3rd DAT), 24 hours
[6] = tomato inserted 3 DAT (in 3rd DAT out 4th DAT), 24 hours
[7] = tomato inserted 4 DAT (in 4th DAT out 5th DAT), 24 hours
[8] = tomato inserted 7 DAT (in 7th DAT out 8th DAT), 24 hours
[9] = Table 1, glyphosate 0.20 (Run 1) / 0.25 (Run 2) lb a.e./A, pH adjusted to 5.5 with KOH
[10] = Table 1, glyphosate 0.20 / 0.25 lb a.e./A
[11] = Table 2, glyphosate 0.275 (exp 1) / 0.20 (exp 2) lb a.e./A
[12] = Table 2, glyphosate 0.275 / 0.20 lb a.e./A

## CCCCC(CC)COC(=O)COc1ccc(Cl)cc1Cl (centres unmarked) [2,4-D 2-ethylhexyl ester]
[1]
  vapor pressure: ~4.8×10^−4 Pa

## CC(C)OC(=O)COc1ccc(Cl)cc1Cl [2,4-D isopropyl ester]
[1]
  vapor pressure: ~1.9×10^1 Pa

## COc1c(Cl)ccc(Cl)c1C(=O)O [DICAMBA DGA, 3,6-dichloro-2-methoxybenzoic acid]
TOMATO; tomato in treated soil ring: duration, dicamba 0.50 lb a.e./A on bare field soil kept wet, 20 gpa, 25 psi
  % INJURY 7 DAT: 25%
TOMATO; [3]
  % INJURY 10 DAT: 27%
  % INJURY 14 DAT: 30%
  % INJURY 21 DAT: 27%
  % INJURY 28 DAT: 27%
TOMATO; tomato inserted 1 DAT (in 1st DAT out 2nd DAT), 24 hours, dicamba 0.50 lb a.e./A
  % INJURY 7 DAT: 33%
TOMATO; [4]
  % INJURY 10 DAT: 37%
  % INJURY 14 DAT: 35%
  % INJURY 21 DAT: 32%
  % INJURY 28 DAT: 25%
TOMATO; [5]
  % INJURY 7 DAT: 13%
  % INJURY 10 DAT: 23%
  % INJURY 14 DAT: 20%
  % INJURY 21 DAT: 15%
  % INJURY 28 DAT: 18%
TOMATO; [6]
  % INJURY 7 DAT: 20%
  % INJURY 10 DAT: 22%
  % INJURY 14 DAT: 2%
  % INJURY 21 DAT: 8%
  % INJURY 28 DAT: 7%
TOMATO; [7]
  % INJURY 7 DAT: 25%
  % INJURY 10 DAT: 27%
  % INJURY 14 DAT: 15%
  % INJURY 21 DAT: 25%
  % INJURY 28 DAT: 22%
TOMATO; [8]
  % INJURY 7 DAT: 17%
  % INJURY 10 DAT: 18%
  % INJURY 14 DAT: 20%
  % INJURY 21 DAT: 17%
  % INJURY 28 DAT: 7%

## O=C(O)CN(CCN(CC(=O)O)CC(=O)O)CCN(CC(=O)O)CC(=O)O [1.0% w/v DTPA, Diethylenetriaminepentaacetic acid]
VELVETLEAF
  % CONTROL 7 DAT: 0%
  % CONTROL 10 DAT: 0%
  % CONTROL 14 DAT: 5%
  % CONTROL 21 DAT: 0%
GIANT FOXTAIL; [9]
  % CONTROL 7 DAT: 1%
GIANT FOXTAIL; [10]
  % CONTROL 10 DAT: 5%
  % CONTROL 14 DAT: 6%
  % CONTROL 21 DAT: 1%
GIANT FOXTAIL; [11]
  % CONTROL 7 DAT: 0%
GIANT FOXTAIL; [12]
  % CONTROL 10 DAT: 0%
  % CONTROL 14 DAT: 0%
  % CONTROL 21 DAT: 3%

## O=C(O)CN(CCN(CC(=O)O)CC(=O)O)CCN(CC(=O)O)CC(=O)O [2.0% w/v DTPA, Diethylenetriaminepentaacetic acid]
GIANT FOXTAIL; [11]
  % CONTROL 7 DAT: 0%
GIANT FOXTAIL; [12]
  % CONTROL 10 DAT: 3%
  % CONTROL 14 DAT: 0%
  % CONTROL 21 DAT: 3%

## CNC.O=C(O)COc1ccc(Cl)cc1Cl [2,4-D dimethylamine salt]
[1]
  vapor pressure: ~1.3×10^−5 Pa

## O=C(O)CN(CCN(CC(=O)O)CC(=O)O)CC(=O)O [1.0% w/v EDTA, Ethylenediaminetetraacetic acid]
GIANT FOXTAIL; [11]
  % CONTROL 7 DAT: 0%
GIANT FOXTAIL; [12]
  % CONTROL 10 DAT: 0%
  % CONTROL 14 DAT: 0%
  % CONTROL 21 DAT: 3%

## O=C(O)CN(CCN(CC(=O)O)CC(=O)O)CC(=O)O [2 0% w/v EDTA, Ethylenediaminetetraacetic acid]
GIANT FOXTAIL; [11]
  % CONTROL 7 DAT: 0%
GIANT FOXTAIL; [12]
  % CONTROL 10 DAT: 0%
  % CONTROL 14 DAT: 0%
  % CONTROL 21 DAT: 0%

## O=C(O)CNCP(=O)(O)O [GLYPHOSATE, N-(phosphonomethyl)glycine]
[2]
  pH: 4.7
VELVETLEAF
  % CONTROL 7 DAT: 12%
  % CONTROL 10 DAT: 12%
  % CONTROL 14 DAT: 10%
  % CONTROL 21 DAT: 6%
GIANT FOXTAIL; [9]
  % CONTROL 7 DAT: 39%
GIANT FOXTAIL; [10]
  % CONTROL 10 DAT: 37%
  % CONTROL 14 DAT: 40%
  % CONTROL 21 DAT: 34%
GIANT FOXTAIL; [11]
  % CONTROL 7 DAT: 49%
GIANT FOXTAIL; [12]
  % CONTROL 10 DAT: 48%
  % CONTROL 14 DAT: 48%
  % CONTROL 21 DAT: 45%

## CCCCOCCOC(=O)COc1ccc(Cl)cc1Cl [2,4-D butoxyethyl ester]
[1]
  vapor pressure: ~3.2×10^−4 Pa

— patent publication US10842149B2, “Water conditioning adjuvant compositions and related methods for reducing herbicide volatility” (BOARD OF TRUSTEES OF MICHIGAN STATE UNIVERSITY, priority 2017, dated 2020)
